For 22 compounds, melting point results are on record in patent US6809110B2 (Hoffmann-La Roche Inc., priority 2002, dated 2004).

The term melting point denotes the temperature of the solid-liquid transition. For `CCOC(Cc1ccc(OCCc2nc(-c3ccccc3)sc2C)c2ccsc12)C(=O)O` (racemic) [Example 1, [rac]-2-Ethoxy-3-{4-[2-(5-methyl-2-phenyl-thiazol-4-yl)-ethoxy]-benzo[b]thiophen-7-yl}-propionic acid], the melting point is 146 to 148 °C.

With `CCOC(Cc1ccc(OCCc2nc(-c3ccccc3)sc2C)c2ccccc12)C(=O)O` (racemic) [Example 51, [rac]-2-Ethoxy-3-{4-[2-(5-methyl-2-phenyl-thiazol-4-yl)-ethoxy]-naphthalen-1-yl}-propionic acid], the melting point lay in the range of 140 to 143 °C.

With `CCOC(Cc1ccc(OCCc2nc(-c3ccc(C)cc3)sc2C)c2ccsc12)C(=O)O` (racemic) [Example 72, [rac]-2-Ethoxy-3-{4-[2-(5-methyl-2-p-tolyl-thiazol-4-yl)-ethoxy]-benzo[b]thiophen-7-yl}-propionic acid], the melting point was 126 to 127 °C.

`CCOC(Cc1ccc(OCCc2nc(-c3ccc(C(C)(C)C)cc3)sc2C)c2ccccc12)C(=O)O` (racemic) [Example 73, [rac]-3-(4-{2-[2-(4-tert-Butyl-phenyl)-5-methyl-thiazol-4-yl]-ethoxy}-naphthalen-1-yl)-2-ethoxy-propionic acid] showed a melting point of 90 to 93 °C.

`CCOC(Cc1ccc(OCCc2nc(-c3ccc(C(C)(C)C)cc3)sc2C)c2ccsc12)C(=O)O` (racemic) [Example 74, [rac]-3-(4-{2-[2-(4-tert-Butyl-phenyl)-5-methyl-thiazol-4-yl]-ethoxy}-benzo[b]thiophen-7-yl)-2-ethoxy-propionic acid] had a melting point of 152 to 154 °C.

Compound `CCOC(Cc1ccc(OCCc2nc(-c3ccc(C(C)C)cc3)sc2C)c2ccsc12)C(=O)O` (racemic) [Example 75, [rac]-2-Ethoxy-3-(4-{2-[2-(4-isopropyl-phenyl)-5-methyl-thiazol-4-yl]-ethoxy}-benzo[b]thiophen-7-yl)-propionic acid] displayed a melting point of 120 to 122 °C.

Turning to `CCOC(Cc1ccc(OCCc2nc(-c3ccc(C(C)C)cc3)sc2C)c2ccccc12)C(=O)O` (racemic) [Example 77, [rac]-2-Ethoxy-3-(4-{2-[2-(4-isopropyl-phenyl)-5-methyl-thiazol-4-yl]-ethoxy}-naphthalen-1-yl)-propionic acid], the melting point is 111 to 113 °C.

Consider `CCOC(Cc1ccc(OCCc2nc(-c3ccc(C)cc3)sc2C)c2ccccc12)C(=O)O` (racemic) [Example 78, [rac]-2-Ethoxy-3-{4-[2-(5-methyl-2-p-tolyl-thiazol-4-yl)-ethoxy]-naphthalen-1-yl}-propionic acid], for which the melting point was 140 to 141 °C.

Compound `Cc1sc(-c2ccccc2)nc1CCOc1ccc(CC(OC(C)C)C(=O)O)c2sccc12` (racemic) [Example 79, [rac]-2-Isopropoxy-3-{4-[2-(5-methyl-2-phenyl-thiazol-4-yl)-ethoxy]-benzo[b]thiophen-7-yl}-propionic acid] yielded a melting point of 73 °C.

Take `CCCOC(Cc1ccc(OCCc2nc(-c3ccccc3)sc2C)c2ccccc12)C(=O)O` (racemic) [Example 80, [rac]-3-{4-[2-(5-Methyl-2-phenyl-thiazol-4-yl)-ethoxy]-naphthalen-1-yl}-2-propoxy-propionic acid]: the melting point was 95 to 99 °C.

Compound `COC(Cc1ccc(OCCc2nc(-c3ccc(C)cc3)sc2C)c2ccccc12)C(=O)O` (racemic) [Example 81, [rac]-2-Methoxy-3-{4-[2-(5-methyl-2-p-tolyl-thiazol-4-yl)-ethoxy]-naphthalen-1-yl}-propionic acid] came in with a melting point of 155 to 156 °C.

Take `CCCOC(Cc1ccc(OCCc2nc(-c3ccc(C)cc3)sc2C)c2ccccc12)C(=O)O` (racemic) [Example 82, [rac]-3-{4-[2-(5-Methyl-2-p-tolyl-thiazol-4-yl)-ethoxy]-naphthalen-1-yl}-2-propoxy-propionic acid]: the melting point fell in the range of 123 to 124 °C.

As to `CCOC(Cc1ccc(OCCc2nc(-c3cc(OC)cc(OC)c3)sc2C)c2ccsc12)C(=O)O` (racemic) [Example 83, [rac]-3-(4-{2-[2-(3,5-Dimethoxy-phenyl)-5-methyl-thiazol-4-yl]-ethoxy}-benzo[b]thiophen-7-yl)-2-ethoxy-propionic acid], the melting point is 148 to 150 °C.

Regarding `COc1cc(OC)cc(-c2nc(CCOc3ccc(CC(OC)C(=O)O)c4sccc34)c(C)s2)c1` (racemic) [Example 84, [rac]-3-(4-{2-[2-(3,5-Dimethoxy-phenyl)-5-methyl-thiazol-4-yl]-ethoxy}-benzo[b]thiophen-7-yl)-2-methoxy-propionic acid], the melting point lay within 156 to 157 °C.

Turning to `COc1cc(OC)cc(-c2nc(CCOc3ccc(CC(OC(C)C)C(=O)O)c4sccc34)c(C)s2)c1` (racemic) [Example 85, [rac]-3-(4-{2-[2-(3,5-Dimethoxy-phenyl)-5-methyl-thiazol-4-yl]-ethoxy}-benzo[b]thiophen-7-yl)-2-isopropoxy-propionic acid], the melting point fell in the range of 150 to 152 °C.

For `Cc1sc(-c2ccc(C(C)(C)C)cc2)nc1CCOc1ccc(CC(OC(C)C)C(=O)O)c2ccccc12` (racemic) [Example 86, [rac]-3-(4-{2-[2-(4-tert-Butyl-phenyl)-5-methyl-thiazol-4-yl]-ethoxy}-naphthalen-1-yl)-2-isopropoxy-propionic acid], the melting point is 75 to 85 °C.

The compound `CCCOC(Cc1ccc(OCCc2nc(-c3ccc(C(C)(C)C)cc3)sc2C)c2ccsc12)C(=O)O` (racemic) [Example 87, [rac]-3-(4-{2-[2-(4-tert-Butyl-phenyl)-5-methyl-thiazol-4-yl]-ethoxy}-benzo[b]thiophen-7-yl)-2-propoxy-propionic acid] had a melting point of 76 °C.

Compound `CCOC(Cc1ccc(OCCc2nc(-c3cc(OC)cc(OC)c3)sc2C)c2ccccc12)C(=O)O` (racemic) [Example 88, [rac]-3-(4-{2-[2-(3,5-Dimethoxy-phenyl)-5-methyl-thiazol-4-yl]-ethoxy}-naphthalen-1-yl)-2-ethoxy-propionic acid] returned a melting point of 133 to 135 °C.

In turn, `COC(Cc1ccc(OCc2sc(-c3ccc(C(F)(F)F)cc3)nc2C)c2ccccc12)C(=O)O` (racemic) [Example 136, [rac]-2-Methoxy-3-{4-[4-methyl-2-(4-trifluoromethyl-phenyl)-thiazol-5-ylmethoxy]-naphthalen-1-yl}-propionic acid] had a melting point of 190 to 192 °C.

`CCOC(Cc1ccc(OCc2sc(-c3ccc(C(F)(F)F)cc3)nc2C)c2ccccc12)C(=O)O` (racemic) [Example 137, [rac]-2-Ethoxy-3-{4-[4-methyl-2-(4-trifluoromethyl-phenyl)-thiazol-5-ylmethoxy]-naphthalen-1-yl}-propionic acid] returned a melting point of 186 to 188 °C.

In the case of `COC(Cc1ccc(OCc2sc(-c3ccc(C(F)(F)F)cc3)nc2C)c2ccsc12)C(=O)O` (racemic) [Example 138, [rac]-2-Methoxy-3-{4-[4-methyl-2-(4-trifluoromethyl-phenyl)-thiazol-5-ylmethoxy]-benzo[b]thiophen-7-yl}-propionic acid], the melting point was 140 to 142 °C (dec.).

For the compound `CCOC(Cc1ccc(OCc2sc(-c3ccc(C(F)(F)F)cc3)nc2C)c2ccsc12)C(=O)O` (racemic) [Example 139, [rac]-2-Ethoxy-3-{4-[4-methyl-2-(4-trifluoromethyl-phenyl)-thiazol-5-ylmethoxy]-benzo[b]thiophen-7-yl}-propionic acid], the melting point is 178 to 179 °C.
